This test relates to A. gambiae labellum sensilla (purine-sensitive cell). The test is described as follows: Tip recording of action potentials from A. gambiae labellum sensilla in response to agonists. The format is cell-based, Anopheles gambiae. The method, then: The tip recording method was used to record action potentials (spikes) from sensory cells in sensilla on A. gambiae labellum lobes.
Sensilla were exposed to test compounds and PR antagonists for ca. 2-4 s and spikes were counted in the first 2 s of recordings. Up to 4 test compounds were tested on a sensillum to evaluate potential agonists, each presented at 200 pM. To study responses as a function of dose for agonists ATP, adenosine, AMP, AMP-CPP and ATP+adenosine, up to 7 recordings were made at increasing doses of agonist from the same sensillum. Unless otherwise stated, recordings were made throughout from 4 to 16 sensilla from individual 4-6-day-old females per dose of agonist, antagonist and metal ion modulator. For example, a response curve established over 6 doses of an antagonist using 8 sensilla per dose involved recording from a sensillum of 48 separate mosquitoes. A given dose of a PR antagonist or metal ion modulator was only presented once to a sensillum. Two-second recordings were imported as ASCII files into DataView software for analysis of spike amplitude. Differences in spike amplitude generated by stimulation of one 8v sensillum/female with 1 mM sucrose (n=294 spikes from 6 females) 200 pM adenosine (n=207 spikes from 7 females) and 200 pM ATP (n=192 spikes from 7 females) were compared by measuring the spike amplitude in mV between the highest point of depolarisation and the lowest point of hyperpolarisation.
Spike counts elicited by 200 pM doses of nucleotides, nucleosides, purines, pyrimidines and water were log(x+1.25)-transformed (optimal constant numerically established using a maximum likelihood procedure) and analysed using a linear mixed effects model (function ‘lme’ in “nlme” R package) with mosquito number as random effect. To model inhomogeneous variance in residuals (near normal distribution, P=0.045, Shapiro-Wilk test, W=0.98604), the variance function ‘varldent’ in the “nlme” package that allows for different variance per treatment was used. Statistical differences were identified between treatments using post-hoc-Tukey test with contrasts adjusted by Holm's family wise error compensation (FWEC). Spike counts elicited by ATP, AMP, adenosine and their binary mixtures were analysed using a generalised linear model (LM) of log (x+10) transformed data and differences were identified using post-hoc-Tukey test with Holm's FWEC.
Log transformed spike amplitudes generated in response to ATP, adenosine and sucrose were compared using linear mixed effects models using the ‘lme’ function of the “nlme” R package, with spike amplitude as the dependent variable, treatment as the fixed factor and mosquito number within treatment as random effect. Residuals were normally distributed (Shapiro-Wilk test P>0.0563) and their variances homogeneous (Bartlett test P>0.9799); P-values were corrected using Holm's FWEC.
Dose-response models fitted to mosquito data were generated using the ‘drm’ command in the “drc” R package (version 2.5-12). Best fitting models (goodness of fit) and effects of dose of a compound were assessed using, respectively, ‘modelFit’ and ‘noEffect’ functions in the same R package. A 3-parameter logistic model (L3) was fitted to spike-counts recorded to increasing doses of adenosine, AMP, ATP and AMP-CPP. Spike numbers recorded in response to 200 pM ATP with increasing doses of PR antagonists added were analysed using a 4-parameter log-logistic model (LL.4) for A-317491 and spinorphin, using a 4-parameter Weibull model (W1.4) for PPADS, RB-2 and TMP, and using a 3-parameter log-logistic model (LL.3) for suramin. An L3 model was fitted to proportions of females feeding on increasing doses of ATP. Feeding rates on 20 μM ATP with increasing doses of a PR antagonist added were analysed using a 4-parameter log-logistic model (LL.4) with the median of the positive control (20 μM ATP) fixed as the upper asymptote. […]

[1] abbreviates: spike frequency as a function of dose.

With `Nc1ncnc2c1ncn2[C@@H]1O[C@H](COP(=O)(O)OP(=O)(O)OP(=O)(O)O)[C@@H](O)[C@H]1O` [ATP, Adenosine 5′-triphosphate], the spike frequency (50 pM alone, mixture 50 pM of each agonist) is reported as 2.5±0.7 /2s. Also, for the setting “Anopheles gambiae, spike frequency as a function of dose, read-out: ED50 (the source's name)”, the EC50 is about 0.12 nM. Further, the “spikes recorded at the asymptote” value (at 250 pM) is recorded as “approximately 30 spikes/2 s”. Also, the “Mean spike frequency per 2 s (±SEM)” value (each compound at 200 pM alone and in binary mixtures, T1 labellum sensilla) was 33.04 per 2 s. In addition, the detection threshold (labellum sensory cell) is listed as under 100 pM. Also, under setting [1], the ED95 is about 200 pM and the “dose at which the unsurmountable asymptote is reached” value is recorded as 250 pM.
